Patent publication US10759796B2, “CXCR4 inhibitors and uses thereof” (X4 Pharmaceuticals, Inc., priority 2016, dated 2020)

Columns and labels:
[1] = molecular target: CXCR-4 transfected U87 cell line (U87.CXCR4) (Homo sapiens (Human), UniProt P61073); test: Intracellular CXCL-12-induced calcium mobilization assay (FLIPR); format: cell-based; settings: U87.CXCR4 cells, CXCL-12 25-50 ng/mL; read-out: IC50 CXCL-12 Ca2+ flux U87.CXCR4+
Protocol: Example 28: REGA Screening Assay
Intracellular CXCL-12-Induced Calcium Mobilization Assay
Intracellular calcium mobilization induced by chemokines or chemokine-derived peptides were evaluated using a calcium responsive fluorescent probe and a FLIPR system. The CXCR-4 transfected U87 cell line (U87.CXCR4) cells were seeded in gelatine-coated black-wall 96-well plates at 20,000 cells per well and incubated for 12 hours. Cells were then loaded with the fluorescent calcium probe Fluo-2 acetoxymethyl at 4 μM final concentration in assay buffer (Hanks' balanced salt solution with 20 mM HEPES buffer and 0.2% bovine serum albumin, pH 7.4) for 45 min at 37° C. The intracellular calcium mobilization induced by the CXCL-12 (25-50 ng/mL) was then measured at 37° C. by monitoring the fluorescence as a function of time in all the wells simultaneously using a fluorometric imaging plate reader (FLIPR Tetra, Molecular Devices).

[2] = molecular target: Jurkat cells expressing CXCR4 (Homo sapiens (Human), UniProt P61073); test: Chemokine (CXCL12-AF647) binding inhibition assay; settings: CXCL12-AF647 25 ng/mL, read-out: IC50 CXCL-12 binding Jurkat
Chain of Jurkat cells expressing CXCR4 (P61073 whole entry): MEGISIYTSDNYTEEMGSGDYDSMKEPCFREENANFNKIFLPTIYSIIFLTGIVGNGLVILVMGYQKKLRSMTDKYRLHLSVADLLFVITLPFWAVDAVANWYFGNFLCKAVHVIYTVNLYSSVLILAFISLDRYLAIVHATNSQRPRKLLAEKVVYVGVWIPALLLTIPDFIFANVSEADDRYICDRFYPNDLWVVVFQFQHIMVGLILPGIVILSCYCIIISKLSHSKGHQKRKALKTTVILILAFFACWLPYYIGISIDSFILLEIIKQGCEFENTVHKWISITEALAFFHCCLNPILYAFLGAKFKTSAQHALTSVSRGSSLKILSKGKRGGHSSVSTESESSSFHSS
Protocol: Chemokine (CXCL12-AF647) Binding Inhibition Assay
Jurkat cells expressing CXCR4 were washed once with assay buffer (Hanks' balanced salt solution with 20 mM HEPES buffer and 0.2% bovine serum albumin, pH 7.4) and then incubated for 15 min at room temperature with the test compounds diluted in assay buffer at dose-dependent concentrations. Subsequently, CXCL12-AF647 (25 ng/mL) was added to the compound-incubated cells. The cells were incubated for 30 min at room temperature. Thereafter, the cells were washed twice in assay buffer, fixed in 1% paraformaldehyde in PBS, and analyzed on the FL4 channel of a FACSCalibur flow cytometer equipped with a 635-nm red diode laser (Becton Dickinson, San Jose, Calif., USA).
The percentages of inhibition of CXCL12-AF647 binding were calculated according to the formula: [1−((MFI−MFINC)/(MFIPC−MFINC))]×100 where MFI is the mean fluorescence intensity of the cells incubated with CXCL12-AF647 in the presence of the inhibitor, MFINC is the mean fluorescence intensity measured in the negative control (i.e., autofluorescence of unlabeled cells), and MFIPC is the mean fluorescence intensity of the positive control (i.e., cells exposed to CXCL12-AF647 alone).

[3] = in vitro; settings: human, Caco-2, pH 7.4
Protocol: Example 28: Caco-2 Permeability Assay
The goal of this assay was to evaluate the intestinal absorption potential of drug candidates using Caco-2 cell lines.
1. Prewarm Prewarm HBSS Buffer in 37° C. water bath
2. Sonicate Take compounds from −20° C., sonicate for a few minutes (no less than 1 minute)
HBSS buffer with 0.3% DMSO and 5 μM LY: add 150 μL DMSO and 50 μL LY (5 mM) into 50 ml HBSS buffer (pH 7.4).
HBSS buffer with 0.1% DMSO and 5 μM LY: add 50 μL DMSO and 50 μL LY (5 mM) into 50 mL HBSS buffer (pH 7.4).
HBSS buffer with 0.3% DMSO: add 150 μL DMSO into 50 ml HBSS buffer (pH 7.4).
HBSS buffer with 0.1% DMSO: add 50 μL DMSO into 50 ml HBSS buffer (pH 7.4).
Receiver Solution Buffer:
Prepare HBSS buffer with 0.4% DMSO: add 200 μL DMSO into 50 ml HBSS buffer (pH 7.4).
Prepare HBSS buffer with 0.4% DMSO and 5 μM LY: add 200 μL DMSO and 50 μL LY (5 mM) into 50 ml HBSS buffer (pH 7.4).
4. Measure TEER Take cell culture plate out of incubator, wash the cell monolayers with HBSS buffer, and then measure TEER values at Rm temperature. 5. Centrifuge Centrifuge the compound solution (from step 3) at 4000 rpm for 5 min before loading to donor chambers. 6. Dosing Add solution based on the volumes listed in the following table (make sure to take extra 100 μL of donor sample for TO as Backup).
7. Apical LYT0 Samples To determine LY concentration in the apical chember, take 100 μL sample from apical chambers into an opaque plate for LYT0. 8. Prewarm Prewarm apical and basolateral plates at 37° C. for about 5 min, then begin transport by placing the apical plate onto basolateral plate. 9. Incubation Keep the plates in incubator at 37° C. for 90 min. 10. Standard Curve Preparation
For 300 μM compound solution, add 6 μL of compound stock solution into 192 μL of MeOH/H2O (1:1).
Prepare Working Solution in MeOH/H2O (1:1)
3 μL (20×)+57 μL of 0.4% DMSO HBSS+60 μL ACN with IS (Osalmid or Imipramine) - - - 120 μL (1×)
11. Transport Termination Separate the apical plate from the basolateral plate after 90-min incubation.
12. Measure LY Take 100 μL samples from basolateral plate to an opaque plate as LYT90.
13. Measure LY concentrations for LYT0 and LYT90 by Fluorometer (at excitation of 485 nm/emission of 535 nm).
Study details: Test concentration 10 μM
Test systems: Caco-2/HBSS solution
Incubation conditions: 0, 90 min at 37° C.
Sample size: Duplicates (n=2)
Bioanalytical method: LC-MS/MS
For Millicell-24 Cell Culture Plates: surface area of the membrane=0.7 cm^2, VA=0.8 mL (A-to-B) or 0.4 mL (B-to-A)
1. Papp values were calculated based on calculated concentrations.
The compound numbers correspond to the compound numbers in Table 1.

Chain of CXCR-4 transfected U87 cell line (U87.CXCR4) (P61073 whole entry): as above

IC50 [1] | IC50 [2] | Papp A→B at 90 min, 10 μM [3] | Papp B→A at 90 min, 10 μM [3] | efflux ratio at 90 min, 10 μM [3] | Papp at 90 min, 10 μM [3] | Structure (SMILES)
0.01 to 100 nM | 0.01 to 100 nM | 1 to 100 nm/s | 100 to 300 nm/s | > 30 | – | Cc1cccnc1[C@H]1CCC[C@@H](c2nc3ccccn3c2CCCN2CCN(C)CC2)N1C (stereo in doubt) [Compound I-25]
100 to 1000 nM | 0.01 to 100 nM | – | – | – | – | Cc1cccnc1[C@H]1CCC[C@@H](c2nc3ccccn3c2CCCN)N1C (stereo in doubt) [Compound I-26]
0.01 to 100 nM | 0.01 to 100 nM | 1 to 100 nm/s | 1 to 100 nm/s | 10 to 30 | – | CNCCCc1c([C@@H]2CCC[C@H](c3ncccc3C)N2C)nc2ccccn12 (stereo in doubt) [Compound I-27]
100 to 1000 nM | 0.01 to 100 nM | 1 to 100 nm/s | 100 to 300 nm/s | > 30 | – | Cc1cccnc1[C@H]1CCC[C@@H](c2nc3ccccn3c2CCCN(C)C)N1C (stereo in doubt) [Compound I-28]
0.01 to 100 nM | 0.01 to 100 nM | 100 to 300 nm/s | 1 to 100 nm/s | 0.1 to 10 | – | Cc1cccnc1[C@H]1CCC[C@@H](c2nc3cccc(N4CCN(C)CC4)n3c2F)N1C (stereo in doubt) [Compound I-34]
0.01 to 100 nM | 0.01 to 100 nM | 1 to 100 nm/s | 100 to 300 nm/s | 0.1 to 10 | – | Cc1cccnc1[C@H]1CCC[C@@H](c2nc3cccc(N4CCN(C)CC4)n3c2C)N1 (stereo in doubt) [Compound I-192]
0.01 to 100 nM | 0.01 to 100 nM | 1 to 100 nm/s | 100 to 300 nm/s | 0.1 to 10 | – | Cc1cccnc1[C@@H]1CCC[C@H](c2cn3c(N4CCN(C)CC4)cccc3n2)N1C [Compound I-1]
100 to 1000 nM | 100 to 1000 nM | – | – | – | – | Cc1cccnc1[C@@H]1CCC[C@H](c2cn3ccccc3n2)N1CCCCN [Compound I-2]
0.01 to 100 nM | 0.01 to 100 nM | 1 to 100 nm/s | 1 to 100 nm/s | 0.1 to 10 | – | Cc1cccnc1[C@@H]1CC(=O)C[C@H](c2cn3c(N4CCN(C)CC4)cccc3n2)N1C [Compound I-3]
0.01 to 100 nM | 0.01 to 100 nM | 1 to 100 nm/s | 100 to 300 nm/s | > 30 | – | Cc1cccnc1[C@@H]1CCC[C@H](c2cn3c(N4CCNCC4)cccc3n2)N1C [Compound I-4]
100 to 1000 nM | 0.01 to 100 nM | – | – | – | – | Cc1cccnc1[C@@H]1CCC[C@H](c2cn3c(-c4ccncc4)cccc3n2)N1C [Compound I-5]
≥ 1000 nM | 100 to 1000 nM | – | – | – | – | Cc1cccnc1[C@@H]1CCC[C@H](c2cn3c(CCc4ccccn4)cccc3n2)N1C [Compound I-7]
0.01 to 100 nM | 0.01 to 100 nM | – | – | – | – | Cc1cccnc1[C@@H]1CCC[C@H](c2cn3ccccc3n2)N1CCc1ccccn1 [Compound I-8]
0.01 to 100 nM | 0.01 to 100 nM | – | – | – | – | Cc1cccnc1[C@@H]1CCC[C@H](c2cn3ccccc3n2)N1CCn1cccn1 [Compound I-10]
≥ 1000 nM | 100 to 1000 nM | – | – | – | – | CCOCc1c([C@H]2CCC[C@@H](c3ncccc3C(C)C)N2C)nc2cccc(N3CCN(CC)CC3)n12 [Compound I-59]
≥ 1000 nM | 100 to 1000 nM | – | – | – | – | CC(C)c1cccnc1[C@@H]1CCC[C@H](c2nc3cccc(N4CCN(C)CC4)n3c2CO)N1C [Compound I-74]
≥ 1000 nM | 0.01 to 100 nM | – | – | – | – | CN1CCN(c2cccc3nc([C@H]4CCC[C@@H](c5ncccc5C(F)(F)F)N4C)c(Cl)n23)CC1 [Compound I-119]
– | ≥ 1000 nM | – | – | – | – | Cc1cccnc1[C@@H]1CCC[C@H](c2nc3ccccn3c2-c2ccccn2)N1 [Compound I-209]
≥ 1000 nM | 100 to 1000 nM | – | – | – | – | Cc1cccnc1[C@@H]1CCC[C@H](c2cn3c(N4CCN(C)CC4=O)cccc3n2)N1 [Compound I-211]
≥ 1000 nM | ≥ 1000 nM | – | – | – | – | Cc1cccnc1[C@@H]1CCC[C@H](c2cn3c(-c4ccnn4C)cccc3n2)N1 [Compound I-212]
≥ 1000 nM | ≥ 1000 nM | – | – | – | – | Cc1cccnc1[C@@H]1CCC[C@H](c2cn3c(-c4cncn4C)cccc3n2)N1 [Compound I-213]
≥ 1000 nM | ≥ 1000 nM | – | – | – | – | Cc1cccnc1[C@@H]1CCC[C@H](c2cn3c(-c4ccncc4)cccc3n2)N1 [Compound I-214]
≥ 1000 nM | ≥ 1000 nM | – | – | – | – | Cc1cccnc1[C@@H]1CCC[C@H](c2cn3c(-c4cccnc4)cccc3n2)N1 [Compound I-215]
≥ 1000 nM | ≥ 1000 nM | – | – | – | – | Cc1cccnc1[C@@H]1CCC[C@H](c2cn3c(-c4ccccn4)cccc3n2)N1 [Compound I-216]
≥ 1000 nM | ≥ 1000 nM | – | – | – | – | Cc1cccnc1[C@@H]1CCC[C@H](c2nc3ccccn3c2CCC#N)N1 [Compound I-219]
– | – | – | – | > 116 | – | CC[C@H]1OC(=O)[C@H](C)[C@@H](O[C@H]2C[C@@](C)(OC)[C@@H](O)[C@H](C)O2)[C@H](C)[C@@H](O[C@@H]2O[C@H](C)C[C@H](N(C)C)[C@H]2O)[C@](C)(O)C[C@@H](C)C(=O)[C@H](C)[C@@H](O)[C@]1(C)O [Erythromycin, reference compound]
– | – | – | – | – | > 100 nm/s | COCCc1ccc(OCC(O)CNC(C)C)cc1 (stereo not drawn) [Metoprolol, reference compound]
